This passage reports Activity, Ratio and Kb results from ChEMBL document CHEMBL2146406, “DNA-binding study of anthraquinone derivatives using chemometrics methods” (Eur J Med Chem, 2011).

Activity calls are given as the source filed them. The rule behind the calls is not given here.

What all share (assay type): nucleic-acid assay
Common to all, as to settings: Bos taurus

Experiment [1] concerns Nucleic Acid. The experiment can be described thus: Binding affinity to calf thymus DNA in Brittone-Robinson buffer at 50 uM by UV-vis spectroscopy in presence of denatured DNA.
The subject of experiment [2] is Nucleic Acid. The experiment in a line: Binding affinity to calf thymus DNA in Brittone-Robinson buffer at 50 uM by UV-vis spectroscopy in presence of native DNA.
Experiment [3] deals with Nucleic Acid. The experiment in a line: Binding affinity to calf thymus DNA at 50 uM by circular dichroism spectra. A general note: Circular dichroism is widely used to follow secondary structure.
In experiment [4] the test system is Nucleic Acid. The experiment in a line: Binding affinity to calf thymus DNA in Brittone-Robinson buffer at 50 uM at pH 7 in presence of NaCl by UV-vis spectroscopy.
Experiment [5] has as its system Nucleic Acid. The experiment in a line: Ratio of danthron Kb to quinizarin Kb for calf thymus DNA.
The subject of experiment [6] is Nucleic Acid. The experiment can be described thus: Binding affinity to calf thymus DNA assessed as hydrogen bonding.
The subject of experiment [7] is Nucleic Acid. The experiment in a line: Binding affinity to calf thymus DNA in Brittone-Robinson buffer at 50 uM at pH 3 by UV-vis spectroscopy.
Experiment [8] concerns Nucleic Acid. The experiment in a line: Binding affinity to calf thymus DNA at DNA/compound ratio 0.1 to 2 at pH 7 by measuring DNA viscosity.
In experiment [9] the test system is Nucleic Acid. The experiment can be described thus: Binding affinity to calf thymus DNA in Brittone-Robinson buffer at 50 uM at pH 7 by UV-vis spectroscopy.
Experiment [10] concerns Nucleic Acid. The experiment in a line: Binding affinity to calf thymus DNA assessed as partial intercalation.

Take `O=C1c2ccccc2C(=O)c2c(O)ccc(O)c21`: the result with Nucleic Acid [1], in the experiment on Nucleic Acid [2], in the experiment with Nucleic Acid [3], in the experiment on Nucleic Acid [4], in the experiment on Nucleic Acid [8] and in the experiment with Nucleic Acid [9] was Active. In addition, in the experiment with Nucleic Acid [5], the Ratio stood at 5. In addition, the values for the Kb with Nucleic Acid [6] and in the experiment on Nucleic Acid [10] were 1.66 ×10⁴ /M and 3.2 ×10⁷ /M, respectively. Also, the result in the experiment on Nucleic Acid [7] was inactive.
In the case of `O=C1c2cccc(O)c2C(=O)c2c(O)cccc21`, the outcome in the experiment with Nucleic Acid [1], in the experiment on Nucleic Acid [2], with Nucleic Acid [3], in the experiment on Nucleic Acid [4], in the experiment on Nucleic Acid [8] and in the experiment on Nucleic Acid [9] was Active. For the same compound, the Kb in the experiment on Nucleic Acid [6] amounted to 3.6 ×10⁴ /M; in the experiment with Nucleic Acid [10], 7.2 ×10⁶ /M. Besides, in the experiment on Nucleic Acid [7], the result was inactive.
